The record followed here is article PMC5655141, “Allosteric fine-tuning of the conformational equilibrium poises the chaperone BiP for post-translational regulation” (eLife, 2017).

Common to all, as to assay: ITC
What all share (assay type): binding

Assay [1] addresses T1, BiP* FL (full-length T229G BiP, BiP(1-641)) (Cricetulus griseus, UniProt G3I8R9, T229G/V461F).
T1 construct: gene HSPA5; full-length two-domain BiP, residues 1-641 as printed, non-cleavable N-terminal 6xHis tag, pET28a, E. coli BL21(DE3); ATPase-deficient T229G; non-AMPylated
The text has this:
ITC on BiP* FL (full-length T229G BiP, BiP(1-641)) | ATP and ADP binding obtained from ITC experiments for FL BiP*

For a further assay, the target named is T2, BiP* NBD(1-417) (Cricetulus griseus, UniProt G3I8R9, T229G).
T2 construct: gene HSPA5; T229G
T2 sequence (G3I8R9 1-417 T229G): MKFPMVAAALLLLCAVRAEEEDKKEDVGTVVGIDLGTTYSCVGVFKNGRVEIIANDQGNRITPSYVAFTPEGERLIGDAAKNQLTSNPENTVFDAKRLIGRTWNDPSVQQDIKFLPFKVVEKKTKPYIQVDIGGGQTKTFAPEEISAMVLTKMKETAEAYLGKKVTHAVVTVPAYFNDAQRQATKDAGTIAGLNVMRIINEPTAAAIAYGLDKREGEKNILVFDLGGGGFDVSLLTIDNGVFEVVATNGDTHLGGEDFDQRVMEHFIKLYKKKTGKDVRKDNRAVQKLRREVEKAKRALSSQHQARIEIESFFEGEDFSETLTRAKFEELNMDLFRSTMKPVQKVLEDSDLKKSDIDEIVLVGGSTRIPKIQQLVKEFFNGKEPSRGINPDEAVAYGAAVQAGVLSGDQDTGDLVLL

The next assay deals with T3, AMPylated BiP* FL (Cricetulus griseus, UniProt G3I8R9, T229G/V461F).
T3 construct: gene HSPA5; T229G
T3 sequence (G3I8R9 1-641 T229G/V461F): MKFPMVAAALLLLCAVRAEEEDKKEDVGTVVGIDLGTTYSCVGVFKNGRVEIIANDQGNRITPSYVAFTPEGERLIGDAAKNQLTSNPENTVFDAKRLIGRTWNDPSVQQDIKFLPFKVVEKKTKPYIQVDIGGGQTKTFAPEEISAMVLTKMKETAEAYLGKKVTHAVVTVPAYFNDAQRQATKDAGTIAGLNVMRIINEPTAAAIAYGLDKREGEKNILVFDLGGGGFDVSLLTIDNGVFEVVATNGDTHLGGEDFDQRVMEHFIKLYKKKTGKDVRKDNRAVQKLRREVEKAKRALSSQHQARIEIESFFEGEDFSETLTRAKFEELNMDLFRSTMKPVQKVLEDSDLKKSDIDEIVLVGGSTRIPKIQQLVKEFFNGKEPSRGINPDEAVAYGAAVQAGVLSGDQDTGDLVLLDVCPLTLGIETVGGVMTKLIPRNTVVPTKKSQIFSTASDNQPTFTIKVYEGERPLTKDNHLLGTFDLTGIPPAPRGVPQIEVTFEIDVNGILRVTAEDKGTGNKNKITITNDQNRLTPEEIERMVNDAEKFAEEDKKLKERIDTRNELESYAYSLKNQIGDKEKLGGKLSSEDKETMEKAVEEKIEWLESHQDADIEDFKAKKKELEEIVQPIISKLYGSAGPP
From the text: ITC on AMPylated BiP* FL | nucleotide (ATP or ADP) binding to non-AMPylated and AMPylated V461F BiP* measured by ITC

Another assay has as its target T4, BiP* NBD(1-413) (Cricetulus griseus, UniProt G3I8R9, T229G).
T4 construct: gene HSPA5; T229G

Assay [2] concerns the target T5, BiP* FL (full-length T229G BiP, BiP(1-641)) (Cricetulus griseus, UniProt G3I8R9, T229G).
T5 construct: gene HSPA5; full-length two-domain BiP, residues 1-641 as printed, non-cleavable N-terminal 6xHis tag, pET28a, E. coli BL21(DE3); ATPase-deficient T229G; non-AMPylated
The text has this: ITC on BiP* FL (full-length T229G BiP, BiP(1-641))

T1 sequence (G3I8R9 1-641 T229G/V461F): as above
T4 sequence (G3I8R9 1-413 T229G): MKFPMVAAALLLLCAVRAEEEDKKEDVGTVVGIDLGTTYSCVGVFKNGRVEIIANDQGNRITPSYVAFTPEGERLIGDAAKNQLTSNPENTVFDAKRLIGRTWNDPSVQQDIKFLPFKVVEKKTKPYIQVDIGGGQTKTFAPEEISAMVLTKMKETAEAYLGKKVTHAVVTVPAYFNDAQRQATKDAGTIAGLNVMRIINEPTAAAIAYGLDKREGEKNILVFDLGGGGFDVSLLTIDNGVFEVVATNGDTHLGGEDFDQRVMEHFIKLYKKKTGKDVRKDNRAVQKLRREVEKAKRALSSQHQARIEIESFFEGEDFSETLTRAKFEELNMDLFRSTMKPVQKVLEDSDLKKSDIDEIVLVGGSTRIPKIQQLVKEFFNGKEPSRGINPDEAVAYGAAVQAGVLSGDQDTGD
T5 sequence (G3I8R9 1-641 T229G): as the sequence (G3I8R9 1-641 T229G/V461F) above, with F461V counted along it

Broadly, the Kd is the free concentration of one partner at which half of the binding sites on the other are occupied at equilibrium, for simple one-to-one binding. A lower Kd goes with a tighter complex. On to `Nc1ncnc2c1ncn2[C@@H]1O[C@H](COP(=O)(O)OP(=O)(O)O)[C@@H](O)[C@H]1O` [ADP], for which the Kd in assay [1] stood at 4.49 µM; at BiP* NBD(1-417), 3.94 µM; at AMPylated BiP* FL it was 2.36 µM; on BiP* NBD(1-413), 5.27 µM; in assay [2], 5.73 µM.
Regarding `Nc1ncnc2c1ncn2[C@@H]1O[C@H](COP(=O)(O)OP(=O)(O)OP(=O)(O)O)[C@@H](O)[C@H]1O` [ATP], the Kd in assay [1] is 0.21 µM; on AMPylated BiP* FL, 0.07 µM.
